According to patent publication US6642214B1, “Detoxication of active pharmaceutical substances using cyclodextrine oligomers” (CeramOptec Industries, Inc., priority 1997, dated 2003):

Experiments:
[1] = Affinity constants of β-cyclodextrin dimers/trimers for guest compounds (competition with TNS, fluorescence spectroscopy); type: binding
Protocol: Binding constants can be determined in competition with 6-(p-toluidino)-2-naphthalenesulfonic acid (TNS). The measurement is performed by fluorescence spectroscopy according to Ruebner et al. (loc. cit.).
Due to the cyclodextrins being bonded on the secondary side, the cavities of the cyclodextrins are oriented towards each other. The cyclodextrins are preferably β-cyclodextrins. The distance between the cyclodextrin units is determined by selecting the spacer. Depending on the size of the compound to be enclosed, the spacer is selected such that the distance between the at least two cavities approximately matches the distance between two hydro-phobic groups of the pharmaceutically active substance. Preferred spacings are within a range of about 0.6 to 2 nm, more preferably in a range of about 0.8, 1.0, 1.2, 1.4, 1.6 and 1.8 nm.
Such rigid spacers can also be achieved by the use of appropriately functionalized (hetero)aromatics. For example, rigid spacers prevent too high a conformational flexibility, such as twisting of the two cyclodextrins involved in the binding. […] By the use of rigid spacers, affinity constants within a range of greater than 10^6, preferably greater than 10^7 and more preferably greater than 10^8 l/mol are achieved. Thus, rigid spacers are those which achieve correspondingly high stability constants of the complexes together with cyclodextrins involved in the binding and appropriate guest compounds.

[2] = Complex binding constant in competitive reaction with toluidinonaphthalenesulfonic acid; conditions: guest paclitaxel; competition with toluidinonaphthalenesulfonic acid; read-out: complex binding constant Ktaxol
Protocol: 250 mg (100 μmol) of the CD dimer di-β-CD(2N-A4C5A4) (see FIG. 5) was dissolved in 1 l of aqueous buffer (pH 7.35, Hepes 25 mM) at 60° C. and kept at this temperature with vigorous stirring. 8.5 mg of paclitaxel (10 μmol) was dissolved in 1 ml of dimethyl sulfoxide and added dropwise to the mixture with vigorous stirring. The mixture was kept at 60° C. for 24 hours with stirring, followed by cooling and freeze-drying the mixture.

[3] = spacer length 15-16 Å, guests paclitaxel, docetaxel

For “di-β-CD(—NH—(C3H6)—NHCO—(C3H6)—CONH—(C3H6)—NH—) [A3C5A3]”, the “Affinity constant, measured/estimated” value ([1]; spacer length 11-12 Å, guests colchicine, colchemide) was 10^6-10^7 l/mol.
In the case of “di-β-CD(—NH—(C2H4)—SH-[6-(β,γ)-CD-6]-SH—(C2H4)—NH—)”, the “Affinity constant, measured/estimated” value [1, 3] is reported as 3 · 10^9 (trimer) l/mol.
For “di-β-CD(—NH—(C8H16)—NH—) [octyl-α,ω-diamide]”, the “Affinity constant, measured/estimated” value ([1]; spacer length 7-8 Å, guests 3^1,8^1-(di-t-butylphenoxy)-porphyrinoids, (tamoxifene), phenytoin) was 10^6-10^7 l/mol.
With “di-β-CD(—NH—(C4H8)—NHCO—(C3H6)—CONH—(C4H8)—NH—) [A4C5A4]” the “Affinity constant, measured/estimated” value [1, 3] was 10^7 (dimer)- l/mol and the Kd [2] was 1400 nM.
For “di-β-CD(—NH—(C2H4)—SH—[6-α-CD-6]—SH—(C2H4)—NH—)”, the “Affinity constant, measured/estimated” value ([1]; spacer length 13-14 Å, guests vinblastin, vincristin) was “˜10^8 l/mol”.
